Source: ChEMBL document CHEMBL3046208, “Natural and synthetic podolactones with potential use as natural herbicide models” (2000)
Active and inactive are the calls of the source. The calls are words filed in the database; no cut-off is given here.

Tests used:
Format in all cases: functional
Hordeum vulgare [1] = experiment: Stimulation of root length of Hordeum vulgare (barley) at 0.1 mM after 5 days relative to untreated control
Triticum aestivum [2] = experiment: Stimulation of shoot length of Triticum aestivum (wheat) at 0.1 mM after 5 days relative to untreated control
Hordeum vulgare [3] = experiment: Stimulation of germination of Hordeum vulgare (barley) at 0.1 mM after 5 days relative to untreated control
Triticum aestivum [4] = experiment: Stimulation of root length of Triticum aestivum (wheat) at 0.1 mM after 5 days relative to untreated control
Triticum aestivum [5] = experiment: Stimulation of germination of Triticum aestivum (wheat) at 0.1 mM after 5 days relative to untreated control
Allium cepa [6] = experiment: Stimulation of root length of Allium cepa (onion) at 0.1 mM after 5 days relative to untreated control
Allium cepa [7] = experiment: Stimulation of shoot length of Allium cepa (onion) at 0.1 mM after 5 days relative to untreated control
Allium cepa [8] = experiment: Stimulation of germination of Allium cepa (onion) at 0.1 mM after 5 days relative to untreated control
Solanum lycopersicum [9] = experiment: Stimulation of shoot length of Solanum lycopersicum (tomato) at 0.1 mM after 5 days relative to untreated control
Solanum lycopersicum [10] = experiment: Stimulation of root length of Solanum lycopersicum (tomato) at 0.1 mM after 5 days relative to untreated control
Solanum lycopersicum [11] = experiment: Stimulation of germination of Solanum lycopersicum (tomato) at 0.1 mM after 5 days relative to untreated control
Lepidium sativum [12] = experiment: Stimulation of shoot length of Lepidium sativum at 0.1 mM after 5 days relative to untreated control
Lepidium sativum [13] = experiment: Stimulation of root length of Lepidium sativum at 0.1 mM after 5 days relative to untreated control
Lactuca sativa [14] = experiment: Stimulation of shoot length of Lactuca sativa cv. Roman (lettuce) at 0.1 mM after 5 days relative to untreated control
Lepidium sativum [15] = experiment: Stimulation of germination of Lepidium sativum at 0.1 mM after 5 days relative to untreated control
Lactuca sativa [16] = experiment: Stimulation of root length of Lactuca sativa cv. Roman (lettuce) at 0.1 mM after 5 days relative to untreated control
Lactuca sativa [17] = experiment: Stimulation of germination of Lactuca sativa cv. Roman (lettuce) at 0.1 mM after 5 days relative to untreated control
Lactuca sativa [18] = experiment: Stimulation of shoot length of Lactuca sativa cv. Nigra (lettuce) at 0.1 mM after 5 days relative to untreated control
Lactuca sativa [19] = experiment: Stimulation of root length of Lactuca sativa cv. Nigra (lettuce) at 0.1 mM after 5 days relative to untreated control
Lactuca sativa [20] = experiment: Stimulation of germination of Lactuca sativa cv. Nigra (lettuce) at 0.1 mM after 5 days relative to untreated control
Triticum aestivum [21] = experiment: Inhibition of shoot length of Triticum aestivum (wheat) at 0.1 mM after 5 days relative to untreated control
Hordeum vulgare [22] = experiment: Inhibition of germination of Hordeum vulgare (barley) at 0.1 mM after 5 days relative to untreated control; conditions: 120 h
Hordeum vulgare [23] = experiment: Inhibition of root length of Hordeum vulgare (barley) at 0.1 mM after 5 days relative to untreated control; conditions: 120 h
Hordeum vulgare [24] = experiment: Stimulation of shoot length of Hordeum vulgare (barley) at 0.1 mM after 5 days relative to untreated control
Lactuca sativa [25] = experiment: Inhibition of germination of Lactuca sativa cv. Nigra (lettuce) at 0.1 mM after 5 days relative to untreated control; conditions: 120 h
Lactuca sativa [26] = experiment: Inhibition of root length of Lactuca sativa cv. Nigra (lettuce) at 0.1 mM after 5 days relative to untreated control
Lactuca sativa [27] = experiment: Inhibition of shoot length of Lactuca sativa cv. Nigra (lettuce) at 0.1 mM after 5 days relative to untreated control; conditions: 120 h
Solanum lycopersicum [28] = experiment: Stimulation of root length of Solanum lycopersicum (tomato) at 0.1 uM after 5 days relative to untreated control
Lactuca sativa [29] = experiment: Inhibition of germination of Lactuca sativa cv. Roman (lettuce) at 0.1 mM after 5 days relative to untreated control
Lactuca sativa [30] = experiment: Inhibition of root length of Lactuca sativa cv. Roman (lettuce) at 0.1 mM after 5 days relative to untreated control
Lactuca sativa [31] = experiment: Inhibition of shoot length of Lactuca sativa cv. Roman (lettuce) at 0.1 mM after 5 days relative to untreated control
Lepidium sativum [32] = experiment: Inhibition of germination of Lepidium sativum at 0.1 mM after 5 days relative to untreated control
Lepidium sativum [33] = experiment: Inhibition of root length of Lepidium sativum at 0.1 mM after 5 days relative to untreated control; conditions: 120 h
Lepidium sativum [34] = experiment: Inhibition of shoot length of Lepidium sativum at 0.1 mM after 5 days relative to untreated control; conditions: 120 h
Solanum lycopersicum [35] = experiment: Inhibition of germination of Solanum lycopersicum (tomato) at 0.1 mM after 5 days relative to untreated control
Solanum lycopersicum [36] = experiment: Inhibition of root length of Solanum lycopersicum (tomato) at 0.1 mM after 5 days relative to untreated control; conditions: 120 h
Solanum lycopersicum [37] = experiment: Inhibition of shoot length of Solanum lycopersicum (tomato) at 0.1 mM after 5 days relative to untreated control; conditions: 120 h
Allium cepa [38] = experiment: Inhibition of germination of Allium cepa (onion) at 0.1 mM after 5 days relative to untreated control; conditions: 120 h
Allium cepa [39] = experiment: Inhibition of root length of Allium cepa (onion) at 0.1 mM after 5 days relative to untreated control
Allium cepa [40] = experiment: Inhibition of shoot length of Allium cepa (onion) at 0.1 mM after 5 days relative to untreated control; conditions: 120 h
Triticum aestivum [41] = experiment: Inhibition of germination of Triticum aestivum (wheat) at 0.1 mM after 5 days relative to untreated control; conditions: 120 h
Triticum aestivum [42] = experiment: Inhibition of root length of Triticum aestivum (wheat) at 0.1 mM after 5 days relative to untreated control; conditions: 120 h
Hordeum vulgare [43] = experiment: Inhibition of shoot length of Hordeum vulgare (barley) at 0.1 mM after 5 days relative to untreated control; conditions: 120 h

For `COC(=O)[C@@]1(C)CCC[C@]2(C)c3cc(=O)occ3CC[C@@H]12`, the Activity (Hordeum vulgare [1]) was 20%, the Activity (Triticum aestivum [2]) was “inactive” and the Activity (Hordeum vulgare [3]) was 20%. The Activity (Triticum aestivum [4]) was under 20%, the Activity (Triticum aestivum [5]) was under 20% and the Activity (Allium cepa [6]) was “inactive”. The Activity (Allium cepa [7]) was under 20%, the Activity (Allium cepa [8]) was under 20% and the Activity (Solanum lycopersicum [9]) was under 20%. The Activity (Solanum lycopersicum [10]) was over 40%, the Activity (Solanum lycopersicum [11]) was “inactive” and the Activity (Lepidium sativum [12]) was under 20%. The Activity (Lepidium sativum [13]) was 20%, the Activity (Lactuca sativa [14]) was “inactive” and the Activity (Lepidium sativum [15]) was “inactive”. The Activity (Lactuca sativa [16]) was “inactive”, the Activity (Lactuca sativa [17]) was “inactive” and the Activity (Lactuca sativa [18]) was under 20%. The Activity (Lactuca sativa [19]) was “inactive”, the Activity (Lactuca sativa [20]) was under 20% and the inhibition (Triticum aestivum [21]) was “inactive”. The inhibition at 100 µM (Hordeum vulgare [22]) was 20%, the inhibition at 100 µM (Hordeum vulgare [23]) was 20% and the Activity (Hordeum vulgare [24]) was under 20%. For the same molecule, the inhibition at 100 µM (Lactuca sativa [25]) was under 20%, the inhibition (Lactuca sativa [26]) was “inactive” and the inhibition at 100 µM (Lactuca sativa [27]) was under 20%. The Activity (Solanum lycopersicum [28]) was 58%, the inhibition (Lactuca sativa [29]) was “inactive” and the inhibition (Lactuca sativa [30]) was “inactive”. The inhibition (Lactuca sativa [31]) was “inactive”, the inhibition (Lepidium sativum [32]) was “inactive” and the inhibition at 100 µM (Lepidium sativum [33]) was 20%. For the same molecule, the inhibition at 100 µM (Lepidium sativum [34]) was under 20%, the inhibition (Solanum lycopersicum [35]) was “inactive” and the inhibition at 100 µM (Solanum lycopersicum [36]) was over 40%. The inhibition at 100 µM (Solanum lycopersicum [37]) was under 20%, the inhibition at 100 µM (Allium cepa [38]) was under 20% and the inhibition (Allium cepa [39]) was “inactive”. The inhibition at 100 µM (Allium cepa [40]) was under 20%, the inhibition at 100 µM (Triticum aestivum [41]) was under 20% and the inhibition at 100 µM (Triticum aestivum [42]) was under 20%. The inhibition at 100 µM (Hordeum vulgare [43]) was under 20%.
